Source: patent US6608082B1, “Treatment of erectile dysfunction using isoquinoline compound melanocortin receptor ligands” (Lion Bioscience AG, priority 1998, dated 2003)
Where two headings read alike, the source gives them in different places. One block for each compound: values may come before it.

Key:
MCR-1 = target: T1, MCR-1 (Homo sapiens, UniProt Q01726); experiment: Melanocortin receptor binding assay, competition with 125I-HP 467, HEK 293 cells expressing hMCR-1; details: for IC50: read-out: MC-1 IC50
T1 construct: expressed in transfected cells; host or cells: HEK 293
In short: (§1)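 Test compounds compete on intact HEK 293 cells carrying hMCR-1 (2×10^4 per tube) or hMCR-4 (4×10^3 per tube), suspended in PBS, 10% calf serum, 1 mM CaCl2.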

MCR-4 = target: T2, MCR-4 (Homo sapiens, UniProt P32245); experiment: Melanocortin receptor binding assay, competition with 125I-HP 467, HEK 293 cells expressing hMCR-4; details: for IC50: read-out: MC-4 IC50
T2 construct: expressed in transfected cells; host or cells: HEK 293
In short: as §1

[1] = inhibition of binding of 125I-HP 467, HEK 293 cells expressing MCR-1, TRG 2414 library
[2] = inhibition of binding of 125I-HP 467, HEK 293 cells expressing MCR-4, TRG 2414 library
[3] = inhibition of binding of 125I-HP 467, HEK 293 cells expressing MCR-1
[4] = inhibition of binding of 125I-HP 467, HEK 293 cells expressing MCR-4
[5] = TRG 2414 library, inhibition of binding of 125I-HP 467, HEK 293 cells expressing MCR-1
[6] = TRG 2414 library, inhibition of binding of 125I-HP 467, HEK 293 cells expressing MCR-4
[7] = TRG 2406 and TRG 2407 libraries, inhibition of binding of 125I-HP 467
[8] = TRG 2408 and TRG 2409 libraries, inhibition of 125I-HP 467 binding

T1 sequence (Q01726 whole entry): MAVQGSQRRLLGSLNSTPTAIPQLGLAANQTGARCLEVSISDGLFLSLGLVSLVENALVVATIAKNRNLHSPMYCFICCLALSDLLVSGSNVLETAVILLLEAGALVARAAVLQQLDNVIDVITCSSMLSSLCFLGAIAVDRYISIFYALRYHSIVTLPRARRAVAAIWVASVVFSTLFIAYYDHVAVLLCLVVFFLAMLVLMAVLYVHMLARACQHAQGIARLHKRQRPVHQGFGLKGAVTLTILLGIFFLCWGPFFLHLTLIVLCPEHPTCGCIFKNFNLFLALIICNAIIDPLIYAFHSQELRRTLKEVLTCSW
T2 sequence (P32245 whole entry): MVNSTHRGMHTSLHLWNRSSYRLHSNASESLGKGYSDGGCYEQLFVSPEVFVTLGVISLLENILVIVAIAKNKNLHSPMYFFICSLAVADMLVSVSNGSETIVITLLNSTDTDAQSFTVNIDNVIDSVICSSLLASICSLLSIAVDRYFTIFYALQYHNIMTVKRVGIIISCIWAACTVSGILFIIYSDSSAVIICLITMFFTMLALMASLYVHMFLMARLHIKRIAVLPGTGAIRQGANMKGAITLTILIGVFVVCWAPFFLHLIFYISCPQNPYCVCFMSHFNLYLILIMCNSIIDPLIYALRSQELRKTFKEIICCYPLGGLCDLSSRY

Compound: COc1ccc(CCNCC2c3ccccc3CN(CCCCC(N)CN)C2c2cc(C(F)(F)F)cc(C(F)(F)F)c2)cc1 (centres unmarked) [TRG 2414-65]
IC50 (MCR-1; [1]): 3.3 µM
IC50 (MCR-4; [2]): 0.26 µM

Compound: NCC(CCCCN1Cc2ccccc2C(CNCc2ccccc2C(F)(F)F)C1c1ccccc1Br)NCCc1ccccc1 (centres unmarked) [Cmpd 202]
IC50 (MCR-1; [5]): 21.8 µM
IC50 (MCR-4; [6]): 34.1 µM

Compound: CCNc1ccc(C2C(CNc3cccc(Cl)c3)c3ccccc3CN2CCCCC(CN)NC)cc1 (centres unmarked) [TRG 2407-45]
IC50 (MCR-1; [7]): 7.91 µM
IC50 (MCR-4; [7]): 11 µM

Compound: CCNc1ccc(C2C(CNCCc3ccccc3)c3ccccc3CN2CCCC(CN)NCCCCNc2ccccc2)cc1 (centres unmarked) [TRG 2419-1]
IC50 (MCR-1; [3]): 0.11 µM
IC50 (MCR-4; [4]): 3.01 µM

Compound: COc1ccc(CCNCC2c3ccccc3CN(CCCCC(CN)NCC(C)c3ccc(CC(C)C)cc3)C2c2ccc(Cl)cc2Cl)cc1 (centres unmarked) [TRG 2414-28]
IC50 (MCR-1; [1]): 13.9 µM
IC50 (MCR-4; [2]): 7.42 µM

Compound: COc1ccc(CNCC2c3ccccc3CN(CCCCC(CN)NCCc3ccccc3)C2c2cc(C(F)(F)F)cc(C(F)(F)F)c2)cc1 (centres unmarked) [TRG 2414-62]
IC50 (MCR-1; [1]): 15.5 µM
IC50 (MCR-4; [2]): 6.87 µM

Compound: COc1cccc(CNCC2c3ccccc3CN(CCCCC(CN)NCC(C)c3ccc(CC(C)C)cc3)C2c2cccc(Oc3ccccc3)c2)c1 (centres unmarked) [TRG 2414-100]
MC-1 IC50 (MCR-1; [1]): no fit
MC-4 IC50 (MCR-4; [2]): no fit

Compound: CCCCCNc1ccc(C2C(CNCCc3ccccc3)c3ccccc3CN2CCCC(CN)NCCc2ccccc2)cc1 (centres unmarked) [TRG 2412-17]
IC50 (MCR-1; [3]): 0.27 µM
IC50 (MCR-4; [4]): 1.15 µM

Compound: CCOc1cccc(NCC2c3ccccc3CN(CCCCC(CN)NC)C2c2ccc(Cl)cc2Cl)c1 (centres unmarked) [TRG 2407-6]
IC50 (MCR-1; [7]): 3.42 µM
IC50 (MCR-4; [7]): 6.97 µM

Compound: COc1ccccc1CCNCC1c2ccccc2CN(CCCCC(CN)NCCc2ccccc2)C1c1cc(C(F)(F)F)cc(C(F)(F)F)c1 (centres unmarked) [TRG 2414-50]
IC50 (MCR-1; [1]): 8.09 µM
IC50 (MCR-4; [2]): 4.94 µM

Compound: NCC(N)CCCCN1Cc2ccccc2C(CNCCc2cccc(Cl)c2)C1c1ccc(Oc2ccccc2)cc1 (centres unmarked) [Cmpd 268]
MC-1 IC50 (MCR-1; [5]): no fit
MC-4 IC50 (MCR-4; [6]): no fit

More lines, now with the values ahead:

IC50 (MCR-1; [1]): 3.55 µM
IC50 (MCR-4; [2]): 4.42 µM
Compound: NCC(CCCCN1Cc2ccccc2C(CNC2CCCCCC2)C1c1ccc(Cl)cc1Cl)NCCc1ccccc1 (centres unmarked) [TRG 2414-34]

IC50 (MCR-1; [3]): 0.37 µM
IC50 (MCR-4; [4]): 1.11 µM
Compound: CCNc1ccc(C2C(CNC3CCCCC3)c3ccccc3CN2CCCC(CN)NCCc2ccc(Br)cc2)cc1 (centres unmarked) [TRG 2411-167]

MC-1 IC50 (MCR-1; [5]): no fit
MC-4 IC50 (MCR-4; [6]): no fit
Compound: CCCOc1ccc(C2C(CNCCc3ccccc3OC)c3ccccc3CN2CCCCC(N)CN)cc1 (centres unmarked) [Cmpd 277]

IC50 (MCR-1; [1]): 0.998 µM
IC50 (MCR-4; [2]): 5.48 µM
Compound: CCCOc1ccc(C2C(CNCc3cccc(OC)c3)c3ccccc3CN2CCCCC(CN)NCc2ccccc2)cc1 (centres unmarked) [TRG 2414-179]

IC50 (MCR-1; [5]): 1.64 µM
IC50 (MCR-4; [6]): 6.59 µM
Compound: CCCOc1ccc(C2C(CNC3CCCCCC3)c3ccccc3CN2CCCCC(N)CN)cc1 (centres unmarked) [Cmpd 193]

IC50 (MCR-1; [3]): 0.441 µM
IC50 (MCR-4; [4]): 1.52 µM
Compound: CCCOc1ccc(C2C(CN)c3ccccc3CN2CCCC(CN)NCCC2CCCCC2)cc1 (centres unmarked) [TRG 2415-11]

IC50 (MCR-1; [1]): 4.14 µM
IC50 (MCR-4; [2]): 6.08 µM
Compound: CCCOc1ccc(C2C(CNCCc3cccc(Cl)c3)c3ccccc3CN2CCCCC(CN)NCc2ccccc2)cc1 (centres unmarked) [TRG 2414-175]

IC50 (MCR-1; [8]): 1.03 µM
IC50 (MCR-4; [8]): 3.88 µM
Compound: NC[C@H](N)CCCCN1Cc2ccccc2C(CNC2CCCCC2)C1c1ccc(Cl)cc1Cl (some centres unmarked) [TRG 2408-41]

IC50 (MCR-1; [3]): 2.24 µM
IC50 (MCR-4; [4]): 0.94 µM
Compound: NCC(CCCN1Cc2ccccc2C(CO)C1c1ccc(O)cc1)NCCC1CCCCC1 (centres unmarked) [TRG 2415-2]

IC50 (MCR-1; competition with 125I-HP 467, HEK 293 cells expressing MCR-1): 0.13 µM
IC50 (MCR-4; competition with 125I-HP 467, HEK 293 cells expressing MCR-4): 1.05 µM
Compound: CCCCNc1ccc(C2C(CNCCc3ccccc3)c3ccccc3CN2CCCCC(CN)NCCCC)cc1 (centres unmarked) [TRG 2411-75]

IC50 (MCR-1; [1]): 2.16 µM
IC50 (MCR-4; [2]): 7.03 µM
Compound: CCCOc1ccc(C2C(CNCc3ccccc3OCC)c3ccccc3CN2CCCCC(CN)NCc2ccccc2)cc1 (centres unmarked) [TRG 2414-167]

IC50 (MCR-1; [8]): 4.41 µM
IC50 (MCR-4; [8]): 18 µM
Compound: NCC(N)CCCN1Cc2ccccc2C(CNC2CCCCC2)C1c1ccc(-c2ccccc2)cc1 (centres unmarked) [TRG 2408-81]

IC50 (MCR-1; [8]): 2.14 µM
IC50 (MCR-4; [8]): 33.6 µM
Compound: CCNc1ccc(C2C(CNC3CCCCC3)c3ccccc3CN2CCCCC(CN)NCCNC)cc1 (centres unmarked) [TRG 2408-34]

IC50 (MCR-1; [1]): 1.09 µM
IC50 (MCR-4; [2]): 4.95 µM
Compound: CCCOc1ccc(C2C(CNCc3ccc(OC)cc3)c3ccccc3CN2CCCCC(CN)NCc2ccccc2)cc1 (centres unmarked) [TRG 2414-183]
